Experiment [1] addresses T1, Carboxylic ester hydrolase (Equus caballus, UniProt Q9N1N9). The experiment can be described thus: (§1) Tested for kinetic data for the horse serum Butyrylcholinesterase-Catalyzed Hydrolysis of Butyrylthiocholine; 10e-3/M. sec. The following applies: read-out: kon (M-1-s-1).
Experiment [2] has as its target T1, Carboxylic ester hydrolase. The experiment can be described thus: ChEBML_41403. To be noted: read-out: kon (M-1-s-1).
From the text: as §1

Molecules are shown by their SMILES.

Usually kon stands for the second-order rate constant of association.

T1 sequence (Q9N1N9 whole entry): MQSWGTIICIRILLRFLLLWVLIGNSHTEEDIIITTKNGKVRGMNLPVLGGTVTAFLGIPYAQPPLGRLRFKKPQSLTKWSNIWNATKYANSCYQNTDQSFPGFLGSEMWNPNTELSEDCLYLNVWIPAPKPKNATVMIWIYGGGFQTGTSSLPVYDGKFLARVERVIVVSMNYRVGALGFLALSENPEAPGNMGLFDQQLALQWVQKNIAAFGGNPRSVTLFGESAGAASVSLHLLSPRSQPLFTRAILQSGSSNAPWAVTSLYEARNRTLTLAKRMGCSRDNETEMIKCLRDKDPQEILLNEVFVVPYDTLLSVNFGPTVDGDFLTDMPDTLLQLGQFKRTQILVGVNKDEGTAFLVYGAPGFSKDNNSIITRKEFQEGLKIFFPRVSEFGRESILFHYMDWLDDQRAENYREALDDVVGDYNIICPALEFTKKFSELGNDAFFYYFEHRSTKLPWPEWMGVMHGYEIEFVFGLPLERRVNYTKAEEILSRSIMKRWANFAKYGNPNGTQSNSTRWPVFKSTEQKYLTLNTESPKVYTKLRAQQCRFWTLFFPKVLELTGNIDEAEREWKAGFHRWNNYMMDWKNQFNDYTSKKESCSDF

Consider `CCCCNC(=O)OC1C2CC3CC(C2)CC1C3` (centres undefined), for which the association rate constant (kon) in experiment [1] worked out at 1800 M⁻¹ s⁻¹.
As for `CCCCNC(=O)OC12CC3CC(CC(C3)C1)C2` [Butyl-carbamic acid adamantan-1-yl ester], the kon in experiment [1] worked out at 1900 M⁻¹ s⁻¹.
As to `CCCCNC(=O)OC1C[C@H]2CCC1C2` (stereo partly drawn) [Butyl-carbamic acid (S)-bicyclo[2.2.1]hept-2-yl ester], the kon in experiment [2] was 2200 M⁻¹ s⁻¹; in experiment [1], 110000 M⁻¹ s⁻¹.

For the origin of these results see BindingDB's records for doi:10.1016/s0960-894x(98)00484-3 (National Chung-Hsing University, 1999).
